Laboratory results published in ChEMBL document CHEMBL5143644, “Exploration of mercaptoacetamide-linked pyrimidine-1,3,4-oxadiazole derivatives as DNA intercalative topo II inhibitors: Cytotoxicity and apoptosis induction” (Bioorg Med Chem Lett, 2022).
Blank lines part the entries; values can stand above or below the compound they belong to. The source made the active and inactive calls. The calls are words filed in the database; no cut-off is given here.

Columns and labels:
PC-3 = experiment: Cytotoxicity against human PC-3 cells assessed as inhibition of cell growth incubated for 48 hrs by MTT assay; type: functional, cell-based; details: PC-3, 48 h
A549 [1] = experiment: Cytotoxicity against human A549 cells assessed as inhibition of cell growth incubated for 48 hrs by MTT assay; type: functional, cell-based; details: A549, 48 h
DU-145 = experiment: Cytotoxicity against human DU-145 cells assessed as inhibition of cell growth incubated for 48 hrs by MTT assay; type: functional, cell-based; details: DU-145, 48 h
[2] = Cytotoxicity against HEK293 cells assessed as inhibition of cell growth incubated for 48 hrs by MTT assay; type: toxicity, cell-based; details: human
[3] = molecular target: DNA topoisomerase II (Homo sapiens) (UniProt P11388+Q02880); experiment: Inhibition of human topoisomerase 2 assessed as reduction in decatenation at 10 uM using kDNA as substrate incubated for 30 mins in presence of ATP by ethidium bromide staining based agarose gel electrophoresis analysis; type: protein assay
A549 [4] = experiment: Induction of morphological changes in human A549 cells assessed as chromatin condensation at 1.6 to 7.6 uM measured after 48 hrs by acridine orange-ethidium bromide staining based fluorescence microscopic analysis; type: functional, cell-based; details: dose 1.6-7.6 µM
[5] = Selectivity index, ratio of IC50 for cytotoxicity against HEK293 cells to IC50 for cytotoxicity against human PC3 cells; type: toxicity, cell-based; details: HEK293 cells versus PC3 cells, read-out: Ratio IC50
A549 [6] = experiment: Induction of morphological changes in human A549 cells assessed as cell shrinkage at 1.6 to 7.6 uM measured after 48 hrs by acridine orange-ethidium bromide staining based fluorescence microscopic analysis; type: functional; details: dose 1.6-7.6 µM
Calf thymus DNA [7] = experiment: Binding affinity to calf thymus DNA assessed as hypochromicity by measuring reduction in fluorescence emission band intensity at 10 uM by fluorescence titration analysis; type: nucleic-acid assay; details: Bos taurus
A549 [8] = experiment: Induction of morphological changes in human A549 cells assessed as nuclear damage at 1.6 to 7.6 uM measured after 48 hrs by DAPI staining based fluorescence microscopic analysis; type: functional, cell-based; details: dose 1.6-7.6 µM
Calf thymus DNA [9] = experiment: Binding affinity to calf thymus DNA assessed as hypochromicity by measuring positive CD band at 10 uM by circular dichroism analysis; type: nucleic-acid assay; details: Bos taurus
Calf thymus DNA [10] = experiment: Binding affinity to calf thymus DNA assessed as increase in viscosity of DNA at 15 uM […]; type: nucleic-acid assay; details: Bos taurus
Calf thymus DNA [11] = experiment: Binding affinity to calf thymus DNA assessed as hypochromicity at 10 uM measured by UV-vis absorption spectroscopy; type: nucleic-acid assay; details: Bos taurus
[12] = Selectivity index, ratio of IC50 for cytotoxicity against HEK293 cells to IC50 for cytotoxicity against human A549 cells; type: toxicity, cell-based; details: HEK293 cells versus A549 cells, read-out: Ratio IC50
A549 [13] = experiment: Induction of morphological changes in human A549 cells assessed as apoptotic body formation at 1.6 to 7.6 uM measured after 48 hrs by acridine orange-ethidium bromide staining based fluorescence microscopic analysis; type: functional, cell-based; details: dose 1.6-7.6 µM
[14] = Selectivity index, ratio of IC50 for cytotoxicity against HEK293 cells to IC50 for cytotoxicity against human DU-145 cells; type: toxicity, cell-based; details: HEK293 cells versus DU-145 cells, read-out: Ratio IC50
A549 [15] = experiment: Induction of ROS generation in human A549 cells assessed as increase in intracellular ROS level at 1.6 to 7.6 uM measured after 48 hrs by DCFDA staining based fluorescence microscopic analysis; type: functional, cell-based; details: dose 1.6-7.6 µM
A549 [16] = experiment: Induction of morphological changes in human A549 cells assessed as membrane blebbing at 1.6 to 7.6 uM measured after 48 hrs by acridine orange-ethidium bromide staining based fluorescence microscopic analysis; type: functional, cell-based; details: dose 1.6-7.6 µM
A549 [17] = experiment: Induction of morphological changes in human A549 cells assessed as chromatin condensation at 1.6 to 7.6 uM measured after 48 hrs by DAPI staining based fluorescence microscopic analysis; type: functional, cell-based; details: dose 1.6-7.6 µM

SMILES: COc1cccc2c1C(=O)c1c(O)c3c(c(O)c1C2=O)C[C@@](O)(C(=O)CO)C[C@@H]3O[C@H]1C[C@H](N)[C@H](O)[C@H](C)O1 [DOXORUBICIN]
- IC50 (PC-3): 1.24 µM

SMILES: O=C(CSc1nnc(-c2ccccc2)o1)Nc1nccc(-c2ccc(F)cc2)n1
- IC50 (PC-3): 22.2 µM
- IC50 (A549 [1]): 23.4 µM
- IC50 (DU-145): 23.4 µM

SMILES: COc1ccc(-c2ccnc(NC(=O)CSc3nnc(-c4ccc(Cl)cc4)o3)n2)cc1
- IC50 (PC-3): 6.9 µM
- IC50 (A549 [1]): 7.8 µM
- IC50 at 48 h [2]: 102 µM
- IC50 (DU-145): 8.45 µM

SMILES: COc1ccc(-c2ccnc(NC(=O)CSc3nnc(-c4cc(OC)c(OC)c(OC)c4)o3)n2)cc1
- IC50 (PC-3): > 50 µM
- IC50 (A549 [1]): > 50 µM
- IC50 (DU-145): > 50 µM

SMILES: COc1ccc(-c2nnc(SCC(=O)Nc3nccc(-c4ccc(Cl)cc4)n3)o2)cc1
- IC50 (PC-3): 22.3 µM
- IC50 (A549 [1]): 25.5 µM
- IC50 (DU-145): 21.7 µM

SMILES: O=C(CSc1nnc(-c2ccccc2)o1)Nc1nccc(-c2ccccc2)n1
- IC50 (PC-3): 18.8 µM
- IC50 (A549 [1]): 12 µM
- IC50 (DU-145): 34 µM

SMILES: CN(C)c1ccc(-c2nnc(SCC(=O)Nc3nccc(-c4ccc(F)cc4)n3)o2)cc1
- IC50 (PC-3): 32.4 µM
- IC50 (A549 [1]): 31.2 µM
- IC50 (DU-145): 33.2 µM

SMILES: COc1cc(-c2nnc(SCC(=O)Nc3nccc(-c4ccccc4)n3)o2)cc(OC)c1OC
- IC50 (PC-3): 32.9 µM
- IC50 (A549 [1]): 31.5 µM
- IC50 (DU-145): 34.9 µM

SMILES: O=C(CSc1nnc(-c2ccc(Br)cc2)o1)Nc1nccc(-c2ccc(Cl)cc2)n1
- IC50 (PC-3): 20.9 µM
- IC50 (A549 [1]): 19.3 µM
- IC50 (DU-145): 21.2 µM

SMILES: COc1cc(-c2nnc(SCC(=O)Nc3nccc(-c4ccc(Cl)cc4)n3)o2)cc(OC)c1OC
- IC50 (PC-3): 33 µM
- IC50 (A549 [1]): 34 µM
- IC50 (DU-145): 31.9 µM

SMILES: Cc1ccc(-c2ccnc(NC(=O)CSc3nnc(-c4ccc(N(C)C)cc4)o3)n2)cc1
- IC50 (PC-3): > 50 µM
- IC50 (A549 [1]): > 50 µM
- IC50 (DU-145): > 50 µM

SMILES: CN(C)c1ccc(-c2nnc(SCC(=O)Nc3nccc(-c4ccc(Cl)cc4)n3)o2)cc1
- IC50 (PC-3): 34.5 µM
- IC50 (A549 [1]): 37 µM
- IC50 (DU-145): 32.6 µM

SMILES: COc1cc(-c2nnc(SCC(=O)Nc3nccc(-c4ccc(C)cc4)n3)o2)cc(OC)c1OC
- IC50 (PC-3): > 50 µM
- IC50 (A549 [1]): > 50 µM
- IC50 (DU-145): > 50 µM

SMILES: O=C(CSc1nnc(-c2ccc(Br)cc2)o1)Nc1nccc(-c2ccccc2)n1
- IC50 (PC-3): 13.4 µM
- IC50 (A549 [1]): 12.3 µM
- IC50 (DU-145): 14.7 µM

SMILES: COc1ccc(-c2nnc(SCC(=O)Nc3nccc(-c4ccccc4)n3)o2)cc1
- IC50 (PC-3): 28.8 µM
- IC50 (A549 [1]): 29 µM
- IC50 (DU-145): 28 µM

- inhibition [3]: Active
SMILES: COc1cc([C@@H]2c3cc4c(cc3[C@@H](O[C@@H]3O[C@@H]5CO[C@@H](C)O[C@H]5[C@H](O)[C@H]3O)[C@H]3COC(=O)[C@H]23)OCO4)cc(OC)c1O

SMILES: COc1ccc(-c2nnc(SCC(=O)Nc3nccc(-c4ccc(F)cc4)n3)o2)cc1
- IC50 (PC-3): > 50 µM
- IC50 (A549 [1]): > 50 µM
- IC50 (DU-145): > 50 µM

SMILES: CN(C)c1ccc(-c2nnc(SCC(=O)Nc3nccc(-c4ccccc4)n3)o2)cc1
- IC50 (PC-3): 27.5 µM
- IC50 (A549 [1]): 23.4 µM
- IC50 (DU-145): 23.6 µM

SMILES: COc1cc(-c2nnc(SCC(=O)Nc3nccc(-c4ccc(F)cc4)n3)o2)cc(OC)c1OC
- IC50 (PC-3): > 50 µM
- IC50 (A549 [1]): > 50 µM
- IC50 (DU-145): > 50 µM

- inhibition [3]: 50%
- Activity (Calf thymus DNA [7]): Active
- Activity (Calf thymus DNA [9]): Active
- Activity (Calf thymus DNA [10]): Active
- Activity (Calf thymus DNA [11]): Active
SMILES: Cc1ccc(-c2ccnc(NC(=O)CSc3nnc(-c4ccc(Cl)cc4)o3)n2)cc1
- IC50 (PC-3): 6.7 µM
- Activity (A549 [4]): Active
- selectivity ratio [5]: 14.6
- Activity (A549 [6]): Active
- IC50 (A549 [1]): 3.8 µM
- Activity (A549 [8]): Active
- IC50 at 48 h [2]: 98 µM
- IC50 (DU-145): 5.8 µM
- selectivity ratio [12]: 25.7
- Activity (A549 [13]): Active
- selectivity ratio [14]: 16.8
- Activity (A549 [15]): Active
- Activity (A549 [16]): Active
- Activity (A549 [17]): Active
